The text below walks through data of US20230413811A1 (priority 2020, published 2023).

Data set [1] is described as follows: Water solubility at different pH values. The data set is classed as physicochemical. To be noted: for solubility: water. From the text:
The results are compiled in the table here below:

Data set [2] deals with Phytophthora infestans strain Pi96. The data set is classed as in vivo.
The mark [3] stands for this setting: 0.1 M carbonate buffer in water, aqueous buffer, pH 7, buffer 0.1M Carbonate.
Setting [4] is: 0.1 M citrate buffer in water, aqueous buffer, pH 4, buffer 0.1M Citrate.
The mark [5] stands for this setting: 0.1 M glycine buffer in water, aqueous buffer, pH 10, buffer 0.1M Glycine.

Molecules are shown by their SMILES. Where two headings read alike, the source gives them in different places.

For orientation: solubility means the concentration that dissolves in the medium under given conditions. Read a low solubility as little dissolved substance. For `CCCCCCCCCCCCCCCCCC[S+](C)C.[Cl-]` [ODS-Cl, octadecyl dimethyl sulfonium chloride], the solubility in data set [1] (setting [3]) came out at 280 µg/mL; in data set [1] (setting [4]), 1320 µg/mL; in data set [1] (setting [5]), 940 µg/mL; in data set [1] (pH 2.2, aqueous buffer), 1650 µg/mL. The “solubility in water compared with octadecyl dimethyl sulfonium iodide” value in data set [1] (comparison chloride vs iodide) is reported as “higher solubility in water”. Further, the “pH at which the water solubility has a minimum” value in data set [1] (solubility increases below and above this pH) is recorded as ~7.0. In addition, the “Disease Severity Index (%)” value in data set [2] (10 ppm, 3 dpi) stood at 10.3%; in data set [2] (10 ppm, 5 dpi) it was 18.3%; in data set [2] (10 ppm, 7 dpi), 39.7%; in data set [2] (10 ppm, 10 dpi), 97.8%; in data set [2] (50 ppm, 3 dpi), 8.7%; in data set [2] (50 ppm, 5 dpi), 15.6%. Also, the “Disease Severity Index (%)” value in data set [2] (50 ppm, 7 dpi) is reported as 40.0%; in data set [2] (50 ppm, 10 dpi), 89.4%; in data set [2] (100 ppm, 3 dpi) it was 5.5%; in data set [2] (100 ppm, 5 dpi), 11.1%; in data set [2] (100 ppm, 7 dpi), 27.8%; in data set [2] (100 ppm, 10 dpi), 71.8%. The “Disease Severity Index (%)” value in data set [2] (500 ppm, 3 dpi) turned out to be 0.0%; in data set [2] (500 ppm, 5 dpi), 0.0%; in data set [2] (500 ppm, 7 dpi) it was 0.0%; in data set [2] (500 ppm, 10 dpi), 0.0%; in data set [2] (1000 ppm, 3 dpi), 0.0%; in data set [2] (1000 ppm, 5 dpi), 0.0%. The “Disease Severity Index (%)” value in data set [2] (1000 ppm, 7 dpi) was 0.0%; in data set [2] (1000 ppm, 10 dpi), 0.0%. Further, the “Fungicide efficacy (%) at 10 dpi” value in data set [2] (10 ppm, 10 dpi) worked out at 0.0%; in data set [2] (50 ppm, 10 dpi), 0.0%; in data set [2] (100 ppm, 10 dpi) it was 12.5%; in data set [2] (500 ppm, 10 dpi), 100.0%; in data set [2] (1000 ppm, 10 dpi), 100.0%. Besides, the “control of the disease (late blight)” value in data set [2] (1000 ppm, preventive treatment) is listed as “full control”. Moreover, the “dose from which efficient to protect potato leaves against late blight” value in data set [2] (preventive treatment, detached potato leaves) is ≥ 100 ppm.

Regarding `CCCCCCCCCCCCCCCCCC[S+](C)C.[I-]` [ODS-I, octadecyl dimethyl sulfonium iodide, reference compound], the solubility amounted to 80 µg/mL in data set [1] (setting [3]); 290 µg/mL in data set [1] (setting [4]); 30 µg/mL in data set [1] (setting [5]); 120 µg/mL in data set [1] (pH 5.5, aqueous buffer).
